According to patent publication US8557800B2, “Sphingosine kinase inhibitors” (Apogee Biotechnology Corporation, priority 2005, dated 2013):

Columns and labels:
[1] = test system: MCF-7 human breast adenocarcinoma cells; experiment: Cytotoxicity, SRB binding assay; format: cell-based; settings: MCF7, inhibition of cell proliferation, 48 h, read-out: MCF-7 IC50
Experimental: To further assess the biological efficacies of the Compounds in intact cells, each Compound was evaluated for cytotoxicity using human cancer cell lines. These experiments followed methods that have been extensively used. Cell lines tested included MCF-7 human breast adenocarcinoma cells and MCF-10A non-transformed human breast epithelial cells. The indicated cell lines were treated with varying doses of the test Compound for 48 h. Cell survival was then determined using the SRB binding assay (Skehan et al., 1990, J Natl Cancer Inst 82: 1107), and the concentration of compound that inhibited proliferation by 50% (the IC50) was calculated. Values (in μM) represent the mean±sd for replicate trials.

recombinant human SK = experiment: Inhibition of recombinant human SK, LC/MS/MS assay; format: biochemical; settings: 6 μg/ml compound
Experimental: SK activity is measured by incubation of the recombinant SK with [^3H]sphingosine and 1 mM ATP under defined conditions, followed by extraction of the assay mixture with chloroform:methanol under basic conditions. […] Radioactivity in aliquots of the aqueous phase is then quantified as a measure of [^3H]S1P formation.
In an alternate assay procedure, the recombinant human SK was incubated with unlabeled sphingosine and ATP as described above. After 30 minutes, the reactions were terminated by the addition of acetonitrile to directly extract the newly synthesized S1P. The amount of S1P in the samples is then quantified as follows. C17 base D-erythro-sphingosine and C17 SIP are used as internal standards for sphingosine and S1P, respectively. […] The lipids are then fractionation by High-Performance Liquid Chromatography using a C8-reverse phase column eluted with 1 mM methanolic ammonium formate/2 mM aqueous ammonium formate. […] Calibration curves are generated by plotting the peak area ratios of the synthetic standards for each sphingolipid, and used to determine the normalized amounts of sphingosine and S1P in the samples.
Each Compound of this invention was tested for its ability to inhibit recombinant SK using the LC/MS/MS assay described above.

With `O=C(NCc1cccc(C(F)(F)F)c1)C12CC3CC(C1)CC(c1ccc(Cl)cc1)(C3)C2` [Compound 15, 3-(4-Chloro-phenyl)-adamantane-1-carboxylic acid 3-trifluoromethyl-benzylamide] as the molecule, how does the IC50 [1] read?
Its IC50 is over 112 µM.

With `O=C(NCc1ccc(C(F)(F)F)cc1F)C12CC3CC(C1)CC(c1ccc(Cl)cc1)(C3)C2` [Compound 19, 3-(4-Chloro-phenyl)-adamantane-1-carboxylic acid 2-fluoro-4-trifluoromethyl-benzylamide] as the molecule, how does the IC50 [1] read?
The IC50 was over 108 µM.

For `O=C(NCCCc1ccccc1)C12CC3CC(C1)CC(c1ccc(Cl)cc1)(C3)C2` [Compound 48, 3-(4-Chloro-phenyl)-adamantane-1-carboxylic acid (3-phenyl-propyl)-amide], which “Recombinant SK (% inhibition)” value (recombinant human SK) is on record?
The value was 36%.

How did the “Recombinant SK (% inhibition)” value (recombinant human SK) turn out when `O=C1CCCN1CCCNC(=O)C12CC3CC(C1)CC(c1ccc(Cl)cc1)(C3)C2` [Compound 55, 3-(4-Chloro-phenyl)-adamantane-1-carboxylic acid [3-(2-oxo-pyrrolidin-1-yl)-propyl]-amide] was run?
The value was 8%.

How did the “Recombinant SK (% inhibition)” value (recombinant human SK) turn out when `O=C(NCCN1CCNCC1)C12CC3CC(C1)CC(c1ccc(Cl)cc1)(C3)C2` [Compound 59, 3-(4-Chloro-phenyl)-adamantane-1-carboxylic acid (2-piperazin-1-yl-ethyl)-amide] was run?
Its value is 0%.

How did the “Recombinant SK (% inhibition)” value (recombinant human SK) turn out when `O=C(NCc1ccncc1)C12CC3CC(C1)CC(c1ccc(F)cc1)(C3)C2` [Compound 61, 3-(4-Fluoro-phenyl)-adamantane-1-carboxylic acid (pyridin-4-ylmethyl)-amide] was run?
Its value is 58%.

How did the “Recombinant SK (% inhibition)” value (recombinant human SK) turn out when `O=C(NCCCn1ccnc1)C12CC3CC(C1)CC(c1ccc(Cl)cc1)(C3)C2` [Compound 65, 3-(4-Chloro-phenyl)-adamantane-1-carboxylic acid (3-imidazol-1-yl-propyl)-amide] was run?
Its value is 3%.

How did the “Recombinant SK (% inhibition)” value (recombinant human SK) turn out when `O=C(Nc1nnn[nH]1)C12CC3CC(C1)CC(c1ccc(Cl)cc1)(C3)C2` [Compound 67, 3-(4-Chloro-phenyl)-adamantane-1-carboxylic acid (1H-tetrazol-5-yl)-amide] was run?
The value was 10%.

`CC(C)NCC12CC3CC(C1)CC(c1ccc(Cl)cc1)(C3)C2` [Compound 75, [3-(4-Chloro-phenyl)-adamantan-1-ylmethyl]-isopropyl-amine] was tested. Which IC50 [1] did it give?
Its IC50 is 11 µM.

How did the “Recombinant SK (% inhibition)” value (recombinant human SK) turn out when `FC(F)(F)c1ccc(CNCC23CC4CC(C2)CC(c2ccc(Cl)cc2)(C4)C3)cc1` [Compound 77, [3-(4-Chloro-phenyl)-adamantan-1-ylmethyl]-(4-trifluoromethyl-benzyl)-amine] was run?
Its value is 27%.

Which “Recombinant SK (% inhibition)” value (recombinant human SK) does the source give for `Fc1ccc(CNCC23CC4CC(C2)CC(c2ccc(Cl)cc2)(C4)C3)cc1C(F)(F)F` [Compound 79, [3-(4-Chloro-phenyl)-adamantan-1-ylmethyl]-(4-fluoro-3-trifluoromethyl-benzyl)-amine] here?
Its value is 19%.

Which “Recombinant SK (% inhibition)” value (recombinant human SK) does the source give for `FC(F)(F)Oc1ccc(CNCC23CC4CC(C2)CC(c2ccc(Cl)cc2)(C4)C3)cc1` [Compound 80, [3-(4-Chloro-phenyl)-adamantan-1-ylmethyl]-(4-trifluoromethoxy-benzyl)-amine] here?
Its value is 5%.

Which “Recombinant SK (% inhibition)” value (recombinant human SK) does the source give for `Clc1ccc(C23CC4CC(CC(CNCCc5cccc(Oc6ccccc6)c5)(C4)C2)C3)cc1` [Compound 81, [3-(4-Chloro-phenyl)-adamantan-1-ylmethyl]-[2-(3-phenoxy-phenyl)-ethyl]-amine] here?
Its value is 67%.

With `CN1CCC(NCC23CC4CC(C2)CC(c2ccc(Cl)cc2)(C4)C3)CC1` [Compound 82, [3-(4-Chloro-phenyl)-adamantan-1-ylmethyl]-(1-methyl-piperidin-4-yl)-amine] as the molecule, how does the “Recombinant SK (% inhibition)” value (recombinant human SK) read?
The value was 75%.

With `CC(C)(C)NCCCNCC12CC3CC(C1)CC(c1ccc(Cl)cc1)(C3)C2` [Compound 84, N-tert-Butyl-N′-[3-(4-chloro-phenyl)-adamantan-1-ylmethyl]-propane-1,3-diamine] as the molecule, how does the “Recombinant SK (% inhibition)” value (recombinant human SK) read?
Its value is 84%.

Which “Recombinant SK (% inhibition)” value (recombinant human SK) does the source give for `Clc1ccc(C23CC4CC(CC(CNCCCN5CCCC5)(C4)C2)C3)cc1` [Compound 85, [3-(4-Chloro-phenyl)-adamantan-1-ylmethyl]-(3-pyrrolidin-1-yl-propyl)-amine] here?
Its value is 0%.

`CC(Nc1ccccc1)C12CC3CC(CC(c4ccc(F)cc4)(C3)C1)C2` (stereo not drawn) [Compound 94, {1-[3-(4-Fluoro-phenyl)-adamantan-1-yl]-ethyl}-phenyl-amine] was tested. Which IC50 [1] did it give?
Its IC50 is 0.6 µM.

How did the IC50 [1] turn out when `CC(NCc1ccccc1)C12CC3CC(CC(c4ccccc4)(C3)C1)C2` (stereo not drawn) [Compound 97, Benzyl-[1-(3-phenyl-adamantan-1-yl)-ethyl]-amine] was run?
Its IC50 is 0.5 µM.

Which IC50 [1] does the source give for `CC(NCc1ccccc1)C12CC3CC(CC(c4ccc(F)cc4)(C3)C1)C2` (stereo not drawn) [Compound 98, Benzyl-{1-[3-(4-fluoro-phenyl)-adamantan-1-yl]-ethyl}-amine] here?
The IC50 was 3 µM.

With `CC(NCc1ccccc1)C12CC3CC(CC(c4ccc(Cl)cc4)(C3)C1)C2` (stereo not drawn) [Compound 99, Benzyl-{1-[3-(4-chloro-phenyl)-adamantan-1-yl]-ethyl}-amine] as the molecule, how does the IC50 [1] read?
The IC50 was 0.7 µM.

`CC(NCc1ccc(C(C)(C)C)cc1)C12CC3CC(CC(c4ccc(Cl)cc4)(C3)C1)C2` (stereo not drawn) [Compound 100, (4-tert-Butyl-benzyl)-{1-[3-(4-chloro-phenyl)-adamantan-1-yl]-ethyl}-amine] was tested. Which IC50 [1] did it give?
The IC50 was 0.3 µM.

How did the IC50 [1] turn out when `CC(NC(C)C12CC3CC(CC(c4ccc(Cl)cc4)(C3)C1)C2)c1ccc(Br)cc1` (stereo not drawn) [Compound 101, [1-(4-Bromo-phenyl)-ethyl]-{1-[3-(4-chloro-phenyl)-adamantan-1-yl]-ethyl}-amine] was run?
Its IC50 is 10 µM.

`CC(NCCc1ccc(Br)cc1)C12CC3CC(CC(C3)C1)C2` (stereo not drawn) [Compound 102, (1-Adamantan-1-yl-ethyl)-[2-(4-bromo-phenyl)-ethyl]-amine] was tested. Which IC50 [1] did it give?
Its IC50 is 2 µM.

With `CC(NN1CCN(C)CC1)C12CC3CC(CC(c4ccc(Cl)cc4)(C3)C1)C2` (stereo not drawn) [Compound 108, {1-[3-(4-Chloro-phenyl)-adamantan-1-yl]-ethyl}-(4-methyl-piperazin-1-yl)-amine] as the molecule, how does the IC50 [1] read?
The IC50 was 5 µM.

How did the IC50 [1] turn out when `CC(NCc1ccncc1)C12CC3CC(CC(c4ccccc4)(C3)C1)C2` (stereo not drawn) [Compound 109, [1-(3-Phenyl-adamantan-1-yl)-ethyl]-pyridin-4-ylmethyl-amine] was run?
The IC50 was 26 µM.

For `CC(NCc1ccc(Cl)nc1)C12CC3CC(CC(c4ccc(Cl)cc4)(C3)C1)C2` (stereo not drawn) [Compound 110, {1-[3-(4-Chloro-phenyl)-adamantan-1-yl]-ethyl}-(6-chloro-pyridin-3-ylmethyl)-amine], which IC50 [1] is on record?
Its IC50 is 6 µM.

For `CC(NCCc1ccncc1)C12CC3CC(CC(c4ccc(Cl)cc4)(C3)C1)C2` (stereo not drawn) [Compound 111, {1-[3-(4-Chloro-phenyl)-adamantan-1-yl]-ethyl}-(2-pyridin-4-yl-ethyl)-amine], which IC50 [1] is on record?
Its IC50 is 13 µM.

How did the IC50 [1] turn out when `CC(NCc1cnc[nH]1)C12CC3CC(CC(c4ccc(Cl)cc4)(C3)C1)C2` (stereo not drawn) [Compound 112, {1-[3-(4-Chloro-phenyl)-adamantan-1-yl]-ethyl}-(3H-imidazol-4-ylmethyl)-amine] was run?
Its IC50 is 5 µM.

Which IC50 [1] does the source give for `Cc1cc2cc(NC(C)C34CC5CC(CC(c6ccc(Cl)cc6)(C5)C3)C4)ccc2[nH]1` (stereo not drawn) [Compound 113, {1-[3-(4-Chloro-phenyl)-adamantan-1-yl]-ethyl}-(2-methyl-1H-indol-5-yl)-amine] here?
The IC50 was 14 µM.

Which IC50 [1] does the source give for `CCn1c2ccccc2c2cc(CNC(C)C34CC5CC(CC(c6ccc(Cl)cc6)(C5)C3)C4)ccc21` (stereo not drawn) [Compound 115, {1-[3-(4-Chloro-phenyl)-adamantan-1-yl]-ethyl}-(9-ethyl-9H-carbazol-3-ylmethyl)-amine] here?
Its IC50 is 1 µM.

How did the IC50 [1] turn out when `CCn1c2ccccc2c2cc(C(=O)NC(C)C34CC5CC(CC(c6ccc(Cl)cc6)(C5)C3)C4)ccc21` (stereo not drawn) [Compound 116, 9-Ethyl-9H-carbazole-3-carboxylic acid {1-[3-(4-chloro-phenyl)-adamantan-1-yl]-ethyl}-amide] was run?
Its IC50 is 6 µM.

For `CC(NC(=O)Nc1ccc(Cl)c(C(F)(F)F)c1)C12CC3CC(CC(c4ccc(Cl)cc4)(C3)C1)C2` (stereo not drawn) [Compound 117, 1-{1-[3-(4-Chloro-phenyl)-adamantan-1-yl]-ethyl}-3-(4-chloro-3-trifluoromethyl-phenyl)-urea], which IC50 [1] is on record?
The IC50 was 3 µM.

How did the “Recombinant SK (% inhibition)” value (recombinant human SK) turn out when `CC(NC(=O)Nc1ccc(Cl)c(C(F)(F)F)c1)C12CC3CC(CC(c4ccc(Cl)cc4)(C3)C1)C2` (stereo not drawn) [Compound 118, 1-{1-[3-(4-Chloro-phenyl)-adamantan-1-yl]-ethyl}-3-(4-chloro-3-trifluoromethyl-phenyl)-urea] was run?
Its value is 77%.

`CC(NCc1cc(Br)cs1)C12CC3CC(CC(c4ccc(Cl)cc4)(C3)C1)C2` (stereo not drawn) [Compound 119, (4-Bromo-thiophen-2-ylmethyl)-{1-[3-(4-chloro-phenyl)-adamantan-1-yl]-ethyl}-amine] was tested. Which IC50 [1] did it give?
The IC50 was 11 µM.

`CC(NCc1cc(-c2ccccc2)cs1)C12CC3CC(CC(c4ccc(Cl)cc4)(C3)C1)C2` (stereo not drawn) [Compound 120, {1-[3-(4-Chloro-phenyl)-adamantan-1-yl]-ethyl}-(4-phenyl-thiophen-2-ylmethyl)-amine] was tested. Which IC50 [1] did it give?
The IC50 was 108 µM.

How did the IC50 [1] turn out when `O=C(/C=C/c1cc(-c2ccccc2)cs1)C12CC3CC(C1)CC(c1ccc(Cl)cc1)(C3)C2` [Compound 137, 1-[3-(4-Chloro-phenyl)-adamantan-1-yl]-3-(4-phenyl-thiophen-2-yl)-propenone] was run?
The IC50 was 9 µM.
